Numbers after ± are expanded uncertainties.
Details: 100 kPa, Liquid, Parallel plate method

| Compound | thermal conductivity (283.15 K) [W/m/K] | thermal conductivity (303.15 K) [W/m/K] | thermal conductivity (323.15 K) [W/m/K] | thermal conductivity (343.15 K) [W/m/K] |
| --- | --- | --- | --- | --- |
| OCCO [1,2-ethanediol] | 0.239 ± 0.02 | 0.248 ± 0.02 | 0.257 ± 0.02 | 0.266 ± 0.02 |
| CC(O)CO (stereo not drawn) [1,2-propanediol] | 0.206 ± 0.02 | 0.207 ± 0.02 | 0.206 ± 0.02 | 0.207 ± 0.02 |

Reference: the NIST ThermoML archive (doi:10.1016/j.jct.2014.12.001)
